Measured values published in US12472223B2, “Methods for reducing symptoms of multiple sclerosis using a six-amino acid long peptide that inhibits CD40-CD154 interaction” (OP-T LLC, priority 2019, dated 2025).

What was measured:
CD4+ and CD8+ cells = experiment: CD4/CD8 ratio in blood of peptide-treated NOD mice (flow cytometry); assay type: in vivo, mouse
Experimental: (§1) Peptides were designed based on the amino acid sequence of mouse CD154 protein (SEQ ID NO:1) in the SwissPro database. These pre-designed peptides were then ordered from as made-to-order by New England Peptide. The lyophilized peptides were suspended in phosphate buffered saline at 1 mg/ml. 100 μg of a particular peptide was then injected into the tail vein of 8-9 week old NOD mice. Control mice received 100 μl of phosphate buffered saline. This is well before the onset of diabetes, but after damage to pancreatic islets has begun. Three days after the initial injection, another 100 μg of peptide (or 100 μl of phosphate buffered saline in the case of the Control mice) was injected into the tail vein. Mice were then injected with peptide (or phosphate buffered saline) on a weekly basis. At 10 weeks of age, mice were monitored for diabetes, as indicated by a blood glucose level greater than 250 mg/dL for three consecutive days. During this time, blood was also taken from the tail vein, or by sub-mandibular venal puncture, and the level of CD4+ and CD8+ cells determined by flow cytometry using antibodies for CD4 protein and CD8 protein.

EAE induced C57BL/6 mice = experiment: EAE disease score in MOG35-55 induced C57BL/6 mice; assay type: in vivo, mouse
Excerpt: One group of mice-C57BL/6 mice from Taconic (Hudson, NY, USA) received KGYY6 (SEQ ID NO: 29) intravenous (IV) injections 3 days and 1 day prior to EAE induction, while another control group received a vehicle of phosphate buffered saline (PBS). EAE was then induced and the mice started to show symptoms on day 10, which is standard for these mice under these conditions. This is further depicted in FIG. 11. On days 13, 20, and 27, the KGYY6 group of mice receive a boost of peptide, while the other group again received PBS via IV injection. […] By day 13, there was a statistically significant difference that lasted throughout the experiment. In FIG. 11—*—asterisks—denote p-value: *—one asterisk is <0.05; **—two asterisks is <0.01; […] is <0.001; and ****—four asterisks is <0.0001. This is a two-way ANOVA with Sidak's multiple comparisons test. Arrows in above lines in FIG. 11 represent days −3, −1, 13, 20, and 27, which correspond to days on which the mice received the KGYY6. Mice were disease scored daily in this study as described in more detail below.
The EAE mouse model can be highly variable even when attempting to control all possible parameters. This variability in EAE may be due to seasonal variations as well as litter differences in the mice. In order to minimize litter-to-litter and seasonal variations, experiments and studies were performed that had 10 mice per group and the mice were randomly mixed once they arrived from the vendor. Female 10-12 week old C57BL/6 mice were immunized subcutaneously on the upper back/neck with 100 μl completely emulsified MOG35-55 peptide (50 μg in 50 μl PBS) and complete Freund's adjuvant (CFA; 75 μg M. Tuberculosis H37 RA (Becton Dickinson and Company (Franklin Lake, NJ, USA)) in 50 μl incomplete Freund's adjuvant (mineral oil)), followed by i.p. pertussis toxin (PT; 200 ng (Sigma-Aldrich® (St. Louis, MO, USA)) in 100 μl PBS) injections. Mice were then randomly assigned to a treatment cohort or vehicle control cohort. One cohort of mice received intravenous injections of the KGYY6 (SEQ ID NO: 29)—25 μg in 100 μl PBS per mouse on days −3, −1, 13, 20, and 27 as described above. Day 0 is the reference starting point for EAE induction. Another cohort received peptide on days −3, −1, 6, 11, 13, and 15. Vehicle control mice received injections of PBS.
All mice were monitored daily for disease and scored in the following manner: 0—no abnormalities; 0.5—clutching hind limbs; 1—limp tail or weak hind limbs and/or wobbly gait; 1.5—limp tail and clutching hind limbs; 2—limp tail and weak hind limbs and/or wobbly gait wherein the mouse supports itself and propels itself using hind limbs; 2.5—limp tail and weak hind limbs and/or wobbly gait wherein the mouse cannot support and propel itself using hind limbs, but the paws are moving. 3—limp tail and one weak hind limb, while the other hind limb is completely paralyzed wherein the mouse uses the weak hind limb to propel itself in some fashion. […] 5—complete paralysis of hind quarter and weak forelimb(s). The data are reported as the mean daily clinical score for all animals in each group. Mice reaching a level 5 or losing more than 20% of their bodyweight are euthanized.
For this study, a group of EAE induced mice were treated with KGYY6 via intravenous (IV) injections on days 11, 13, and 15. Another group of mice were pretreated on days −3 and −1, and received further treatments on days 6, 11, 13, and 15. […]

[1] = test system: Th40 or conventional CD4 T cells; experiment: Memory cell and Th40 cell levels in KGYY6 treated EAE mice; assay type: in vivo, mouse
Experimental: This study sought to determine whether treatment with KGYY6 had any effect on memory cell levels when administered as described in Example 7 above.
C57BL/6 mice were EAE induced then lymphocytes were stained and gated on Th40 or conventional CD4 T cells and effector and central memory cell levels analyzed in dLN (FIGS. 22A-22D) and spleen (FIGS. 23A-D). Significance was calculated by t-test.

CD69 = CD69 expression on T cells from dLN and spleen of KGYY6 treated EAE mice; assay type: in vivo, mouse; settings: for number of Th40 cells expressing CD69: after 33 days
Experimental: In this study, the number of CD69 expressing cells were measured and determined in draining lymph nodes (dLN) and spleens harvested from EAE mice at the end of the studies as described in Examples 7, 8, and 9 and the administration of KGYY6, after 33 days.
Lymphocytes from dLN or spleen were stained and gated on the Th40 or conventional CD4 T cells then CD69 expression was analyzed.

CD40 = experiment: FITC-conjugated KGYY6 staining of PBMC, dLN and splenic lymphocytes; assay type: binding, mouse
Excerpt: To confirm that KGYY6 binds to the intended target cells, peripheral blood was […], dLN lymphocytes, and splenic lymphocytes from mice at 6 and 13 days out from receiving the full EAE regimen. These cells were then stained with an FITC-conjugated KGYY6.
To confirm that the KGYY6 peptide binds specifically to CD40, PBMC was stained from C57BL/6 mice that have the CD154-interacting domain of CD40 knocked out (B6.CD40KO).
FIG. 24A is a dot plot of PBMC, dLN, and splenic lymphocytes that were harvested and then stained. […] CD40 with heat-mapping for KGYY6. Dot plots on the right are CD62L v. CD44 with heat-mapping for KGYY6. […] The results shown in FIG. 24A are from 6 days post EAE induction. FIG. 24B is a histogram depicting KGYY6 staining of B6.CD40KO, control, non-induced C57BL/6, and EAE-induced C57BL/6 mice, 6 and 13 days post induction. Data represents two mice at day 6, three mice at day 13, all with similar results.

intracellular cytokines = experiment: Intracellular cytokine expression in Th40 and conventional CD4 T cells ex vivo from KGYY6 treated EAE mice; parameters: species or system mouse
Experimental: Intracellular cytokine expression profiles in Th40 and conventional CD4 T cells were examined immediately ex-vivo after 33 days and at the end of the study as described in Example 7.
Other cytokines, such as TNFα, IFNγ, IL-2, and IL-17A were unchanged in response to KGYY6 treatment in both cell types. […] Lymphocytes from dLN or spleen were stained and gated on the Th40 or conventional CD4 T cells then intracellular levels were analyzed. FIGS. 18A-D represent the Th40 cells from spleen. FIGS. 19A-D represent the Th40 cells from dLN. FIGS. 20A-D represent conventional CD4 T cells from the spleen. FIGS. 21A-D represent conventional CD4 T cells from dLN.

NOD mice = experiment: Development of diabetes in NOD mice treated with CD154 peptides; assay type: in vivo, mouse; settings: 100 μg peptide into tail vein of 8-9 week old NOD mice, again after 3 days, then weekly; diabetes = blood glucose >250 mg/dL for three consecutive days
Experimental: as §1

CD62L = CD62L expressing T cells from dLN and spleen of KGYY6 treated EAE mice; assay type: in vivo, mouse; settings: Th40 and conventional CD4 T cells, versus PBS
Excerpt: L-selectins are expressed on T cells and, depending upon activation status, expression rapidly cycles between high and low levels, thus allowing cells to crawl to areas of inflammation, and to extravasate into the tissue. (Mao-Draayer, Y., et al., Clinical Immunol. 175:10-5, 2017; Butcher, E. C., et al., Science, 272 (5258): 60-6, 1997). CD62L is an L-selectin that has generally been associated with naïve T cells, given its importance in lymph node retention. (Chao, C. C., et al., J. Immunol., 159:1686, 1997; Tedder, T. F., et al., Behring Inst. Mitt., 92:165, 1993). Rather than considering CD62L as a biomarker for naïve T cells, it may be possible that CD62L may be involved in lymph node retention of potentially pathogenic effector cells. The number of CD62L expressing Th40 and conventional CD4 T cells from both spleens and dLN of KGYY6 treated mice were compared to mice treated with vehicle (PBS) only (the control).

[2] = spleen and dLN, Th40 or conventional CD4 T cells
[3] = Th40 and conventional CD4 T cells, dLN and spleen

Molecule: CSCC[C@H](NC(=O)[C@@H](NC(=O)[C@H](Cc1ccc(O)cc1)NC(=O)[C@H](Cc1ccc(O)cc1)NC(=O)CNC(=O)[C@H](CCCCN)NC(=O)[C@H](CCCCN)NC(=O)[C@H](C)NC(=O)[C@H](Cc1c[nH]c2ccccc12)NC(=O)[C@H](CCC(N)=O)NC(=O)[C@H](CC(C)C)NC(=O)[C@@H](N)C(C)C)[C@@H](C)O)C(=O)N[C@@H](CCCCN)C(=O)N[C@@H](CO)C(=O)N[C@@H](CC(N)=O)C(=O)O [15-mer peptide, VLQWAKKGYYTMKSN]
- compromise of the immune system as determined by the CD4/CD8 ratio (CD4+ and CD8+ cells): did not result in compromise of the immune system

Molecule: AKKGYY [KGYY6, 6-amino acid core region of the 15-mer]
- EAE disease course (EAE induced C57BL/6 mice; 25 μg IV on days -3, -1, 13, 20, 27, versus PBS control): significantly less severe
- EAE disease course (EAE induced C57BL/6 mice; pretreated days -3, -1, further treatments days 6, 11, 13, 15, versus control): significantly less severe disease course
- EAE disease severity, early versus later boosts (EAE induced C57BL/6 mice; pretreated, boosts from day 6 versus from day 13): overall less severe disease if the boosts started early
- EAE disease course (EAE induced C57BL/6 mice; treat-at-symptom group, IV on days 11, 13, 15): less severe disease course compared to control
- Th40 cell population ([1]; EAE mice treated with KGYY6): did not cause a decrease in the Th40 cell population
- CD44+CD62L+ (central memory) cell levels [1, 2]: no difference in the levels of those memory phenotypes
- CD44+CD62L- (effector memory) cell levels [1, 2]: no difference in the levels of those memory phenotypes
- CD69 expressed per cell (CD69; Th40 cells from spleen, versus vehicle): significantly more CD69 per cell
- CD69 expressed per cell (CD69; conventional CD4 T cells): did no change the amount of CD69 per cell
- number of conventional CD4 T cells expressing CD69 (CD69; dLN and spleen, versus controls): increased by KGYY6 treatment
- number of Th40 cells expressing CD69 (CD69; dLN, versus vehicle): increased
- number of Th40 cells expressing CD69 (CD69; spleen, versus untreated): significantly greater number
- staining of memory cells (CD62L versus CD44) (CD40; PBMC and spleen samples): stained primarily effector (CD44^+CD62L^−) and central memory (CD44^+CD62L^+) cells
- staining of B6.CD40KO cells (CD40; PBMC, CD154-interacting domain of CD40 knocked out): did not stain the B6.CD40KO cells
- staining of CD40- cells (CD40; PBMC, dLN, spleen): not the CD40^− cells
- staining of CD4+CD40+ cells (CD40; PBMC, dLN, spleen, 6 and 13 days post EAE induction): stained the CD4^+CD40^+ cells
- staining of memory cells (CD62L versus CD44) (CD40; dLN samples): more diffuse pattern in dLN samples
- staining of C57BL/6 PBMC (CD40; non-induced and EAE-induced C57BL/6 mice): readily stained both the non-induced and EAE-induced C57BL/6 mice
- IFNγ (intracellular cytokines; [3]): unchanged
- IL-2 (intracellular cytokines; [3]): unchanged
- IL-17A (intracellular cytokines; [3]): unchanged
- TNFα (intracellular cytokines; [3]): unchanged
- intracellular IL-10 (intracellular cytokines; Th40 cells, dLN or spleen): no difference in intracellular IL-10 expression
- intracellular IL-10 (intracellular cytokines; conventional CD4 T cells from dLN, day 33): increase in intracellular IL-10
- development of diabetes in NOD mice (NOD mice): significant effects on the development of diabetes
- number of CD62L expressing cells (CD62L): no difference in number of CD62L expressing cells

Molecule: WAKKGYYTMK [10-mer]
- development of diabetes in NOD mice (NOD mice): significant effects on the development of diabetes

Molecule: KGYY (listed as Mus musculus)
- EAE scores (EAE induced C57BL/6 mice; 4-mer administered prior to onset and then post onset, versus untreated mice): lower EAE scores compared to untreated mice
